Measured values as given in US7989446B2, “4-amino 5-cyanopyrimidine derivatives” (Otsuka Pharmaceutical Co., Ltd., priority 2004, dated 2011).
Structures can show the parent of a compound that is named as a salt.

Columns and labels:
[1] = biological target: T1, adenosine A2a receptor (Human) (Homo sapiens, UniProt P29274); assay: c-AMP generating action in cell expressing adenosine A2a receptor; format: cell-based; conditions: HEK293 cell expressing human A2a; 100% = c-AMP caused by 1 μM CGS-21680; read-out: A2a Agonistic Action (EC50)
T1 construct: host or cells: HEK293
Protocol: (1) c-AMP Generating Action in Cell Expressing Adenosine A2a Receptor
The test was carried out as mentioned below with reference to the method disclosed in the reference (Klotz k. N. et al., Naunyn-Schmiedeberg's Arch. Pharmacol., (1998) 357, 1-9; Shryock J. C. et al., Molecular Pharmacology, (1998) 53, 886-893).
As to the cell, HEK293 cell expressing adenosine A2a receptor (Human) (PerkinElmer Life Sciences, Code No. RBHA2AC) was used.
As to the culture medium, Dulbecco's modified Eagles medium (DMEM) including 10% FBS (Fetal bovine serum) and 1 mM of sodium pyruvate was used.
The cell was placed on 96 well plate (1×10^5/well), and cultured overnight. After removing off the supernatant, to each well, 0.1 ml of DMEM (without FBS) containing 20 mM HEPES, 0.1 mM of IBMX (3-isobutyl-1-methylxanthine) and 2 unit/mL adenosine deaminase was added, and they were incubated at 37° C. for 30 minutes. To each well, 0.1 ml of the culture medium including the DMSO solution of the test compound in an appropriate concentration was added and they were incubated for additional 30 minutes. After removing off the supernatant, the cytolytic solution was added to quench the reaction. The amount of c-AMP in each well was measured by using the c-AMP enzyme immunoassay (EIA) system (Amersham Biosciences, Code No. RPN225).
The same assay was repeated using CGS-21680 (2-p-carboxyethyl)phenethylamino-5′-N-ethylcarboxamidoadenosine hydrochloride, (Sigma, code C141) as reference compound. The amount of resultant c-AMP in the medium, caused by 1 μM of reference compound, was defined to be 100%. A concentration of assayed compound in the medium, producing 50% c-AMP amounts, was calculated to be EC50 value.

[2] = test system: Intraocular Pressure in Rabbit; assay: Measuring test for intraocular pressure in rabbit; format: in vivo, Female New Zealand white rabbits; conditions: 0.3% suspended ophthalmic preparation, test group, mean±standard error
Protocol: (3) Measuring Test for Intraocular Pressure in Rabbit
The test compounds were dissolved in 10 mM of phosphate buffer (pH 7.5) (hereinafter, referred to as “vehicle of ophthalmic preparation”), and they were instilled in a given concentration. In addition, the compounds insoluble in that concentration was used as a suspension. Female New Zealand white rabbits (KITAYAMA LABES Co., Ltd.) whose weights were 2.0-4.0 kg were used.
The measurement of the intraocular pressure was carried out using Pneumatonometer (Model 30 Classic, Mentor company) without anesthesia. In addition, before the measurement of the intraocular pressure, the surface anesthesia with 0.4% oxybuprocaine hydrochloride (“Benoxil” 0.4% ophthalmic solution, Santen Pharmaceutical Co., Ltd.) was carried out.
The animals whose intraocular pressure was stable before instillation were selected, and these animals were divided to every 4 animal in each one group, 50 μL of eye drops including each the test compound was administered to one-sided eye and vehicle was administered to contralateral eye as the control eye. The measurement of intraocular pressure was carried out before instillation and after 0.5, 1, 2, 3, 4 and 6 hours from instillation. The effect on the intraocular pressure was shown as the difference from pre-instillation (ΔIOP, mmHg, mean±standard error). The following Tables 14 and 15 show the results of Control Compounds A and B used as 1% suspensions which are the same as in the pharmacological test (1).
The animals were pretreated as mentioned above, and among them animals whose intraocular pressure was stable before instillation were selected, and these animals were divided to every 5 to 8 animal in each one group. Every two group was used for each of the test compounds. The test compound was administered unilaterally to the eye of the test group rabbit and the intraocular pressure was measured. The vehicle was administered unilaterally to the eye of the control group rabbit and the intraocular pressure was measured. As mentioned above, the measurement of intraocular pressure was carried out before instillation and after 0.5, 1, 2, 3, 4 and 6 hours from instillation, and the effect on the intraocular pressure was shown as the difference from pre-instillation (ΔIOP, mmHg, mean±standard error).

T1 sequence (P29274 whole entry): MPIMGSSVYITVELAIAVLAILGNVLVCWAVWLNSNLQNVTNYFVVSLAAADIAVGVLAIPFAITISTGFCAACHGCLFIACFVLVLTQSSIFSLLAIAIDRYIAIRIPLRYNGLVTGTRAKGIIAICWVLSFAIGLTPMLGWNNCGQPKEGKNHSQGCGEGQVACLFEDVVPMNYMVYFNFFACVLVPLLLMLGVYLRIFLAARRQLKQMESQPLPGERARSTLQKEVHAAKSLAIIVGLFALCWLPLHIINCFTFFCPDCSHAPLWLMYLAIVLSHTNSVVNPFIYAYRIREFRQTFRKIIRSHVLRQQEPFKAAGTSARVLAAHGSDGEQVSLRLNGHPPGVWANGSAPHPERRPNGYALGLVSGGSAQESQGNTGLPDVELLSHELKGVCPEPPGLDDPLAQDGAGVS

Structure (SMILES): CC(=O)Nc1ccc(-c2nc(SCc3cccc(C(=O)N4CCN(C(=O)OC(C)(C)C)CC4)n3)nc(N)c2C#N)cc1 [Example 28, t-butyl 4-{6-[4-(4-acetylaminophenyl)-6-amino-5-cyanopyrimidin-2-ylsulfanyl-methyl]pyridine-2-carbonyl}piperazine-1-carboxylate]
- EC50 [1]: 8.2 nM

Structure (SMILES): CC(=O)Nc1ccc(-c2nc(SCc3ccc(C)cn3)nc(N)c2C#N)cc1 [Example 3, N-{4-[6-amino-5-cyano-2-(5-methylpyridin-2-ylmethylsulfanyl)pyrimidin-4-yl]phenyl}acetamide]
- EC50 [1]: 65.7 nM

Structure (SMILES): CC(=O)Nc1ccc(-c2nc(SCc3cccc(CCC(=O)N4CCCCC4CO)n3)nc(N)c2C#N)cc1 (stereo not drawn) [Example 70, N-[4-(6-amino-5-cyano-2-{6-[3-(2-hydroxymethylpiperidin-1-yl)-3-oxopropyl]pyridin-2-ylmethylsulfanyl}pyrimidin-4-yl)phenyl]acetamide hydrochloride]
- EC50 [1]: 8.8 nM

Structure (SMILES): CC(=O)Nc1ccc(-c2nc(SCc3cccc(CCC(=O)N4CCNCC4)n3)nc(N)c2C#N)cc1 [Example 74, N-(4-{6-amino-5-cyano-2-[6-(3-oxo-3-piperazin-1-ylpropyl)pyridin-2-ylmethylsulfanyl]-pyrimidin-4-yl}phenyl)acetamide hydrochloride]
- EC50 [1]: 2.5 nM

Structure (SMILES): CN1CCN(C(=O)CCc2cccc(CSc3nc(N)c(C#N)c(-c4ccc(N)cc4)n3)n2)CC1 [Example 56, 4-amino-6-(4-aminophenyl)-2-{6-[3-(4-methylpiperazin-1-yl)-3-oxopropyl]-pyridin-2-ylmethylsulfanyl}pyrimidin-5-carbonitrile]
- EC50 [1]: 5.1 nM

Structure (SMILES): CC(=O)Nc1ccc(-c2nc(SCc3cccc(CCC(=O)NCCN)n3)nc(N)c2C#N)cc1 [Example 60, 3-{6-[4-(4-acetylaminophenyl)-6-amino-5-cyanopyrimidin-2-ylsulfanylmethyl]pyridin-2-yl}-N-(2-aminoethyl)propionamide hydrochloride]
- EC50 [1]: 2.8 nM

Structure (SMILES): CCC(=O)CCc1cccc(CSc2nc(N)c(C#N)c(-c3ccc(NC(C)=O)cc3)n2)n1 [Example 82, N-(4-{6-amino-5-cyano-2-[6-(3-oxopentyl)pyridin-2-ylmethylsulfanyl]pyrimidin-4-yl}phenyl)acetamide]
- EC50 [1]: 8.2 nM

Structure (SMILES): CC(=O)Nc1ccc(-c2nc(SCc3ccccn3)nc(N)c2C#N)cc1 [Example 1, N-{4-[6-amino-5-cyano-2-(pyridin-2-ylmethylsulfanyl)-pyrimidin-4-yl]phenyl}acetamide]
- EC50 [1]: 39.6 nM

Structure (SMILES): CCN(CC)CCN1CCN(C(=O)CCCCc2cccc(CSc3nc(N)c(C#N)c(-c4ccc(NC(C)=O)cc4)n3)n2)CC1 [Example 55, N-{4-[6-amino-5-cyano-2-(6-{5-[4-(2-diethylaminoethyl)piperazin-1-yl]-5-oxopentyl}pyridin-2-ylmethylsulfanyl)pyrimidin-4-yl]phenyl}acetamide hydrochloride]
- EC50 [1]: 5.5 nM

Structure (SMILES): COC(=O)Nc1ccc(-c2nc(SCc3cccc(C)n3)nc(N)c2C#N)cc1 [Example 13, methyl {4-[6-amino-5-cyano-2-(6-methylpyridin-2-ylmethylsulfanyl)pyrimidin-4-yl]phenyl}-carbamate]
- EC50 [1]: 13.5 nM

Structure (SMILES): CC(=O)Nc1ccc(-c2nc(SCc3cccc(CCC(=O)OC(C)(C)C)n3)nc(N)c2C#N)cc1 [Example 42, t-butyl 3-{6-[4-(4-acetylaminophenyl)-6-amino-5-cyanopyrimidin-2-ylsulfanyl-methyl]pyridin-2-yl}propionate]
- EC50 [1]: 10 nM

Structure (SMILES): CCCC(=O)Nc1ccc(-c2nc(SCc3cccc(CCC(=O)N4CCN(C)CC4)n3)nc(N)c2C#N)cc1 [Example 58, N-[4-(6-amino-5-cyano-2-{6-[3-(4-methylpiperazin-1-yl)-3-oxopropyl]pyridin-2-ylmethylsulfanyl}pyrimidin-4-yl)phenyl]-butylamide]
- EC50 [1]: 38 nM

Structure (SMILES): CC(=O)Nc1ccc(-c2nc(SCc3cccc(CNC(=O)CCCN4CCCC4)n3)nc(N)c2C#N)cc1 [Example 33, N-{6-[4-(4-acetylaminophenyl)-6-amino-5-cyanopyrimidin-2-ylsulfanylmethyl]pyridin-2-ylmethyl}-4-pyrrolidin-1-ylbutyl-amide]
- EC50 [1]: 48 nM

Structure (SMILES): Cc1cccc(CSc2nc(N)c(C#N)c(-c3ccc(N)cc3)n2)n1 [Example 8, 4-amino-6-(4-aminophenyl)-2-(6-methylpyridin-2-ylmethylsulfanyl)-pyrimidine-5-carbonitrile]
- EC50 [1]: 34.8 nM

Structure (SMILES): CCNC(=O)[C@H]1O[C@@H](n2cnc3c(N)nc(NCCc4ccc(CCC(=O)O)cc4)nc32)[C@H](O)[C@@H]1O [CGS-21680, (2-p-carboxyethyl)phenethylamino-5′-N-ethylcarboxamidoadenosine hydrochloride, reference compound]
- ΔIOP (mmHg) ([2]; 0.5 hr): −2.5 ± 0.4 mmHg
- ΔIOP (mmHg) ([2]; 1 hr): −6.3 ± 0.6 mmHg
- ΔIOP (mmHg) ([2]; 2 hr): −4.2 ± 0.4 mmHg
- ΔIOP (mmHg) ([2]; 3 hr): −3.5 ± 0.4 mmHg
- ΔIOP (mmHg) ([2]; 4 hr): −1.5 ± 0.7 mmHg
- ΔIOP (mmHg) ([2]; 6 hr): 0.3 ± 0.4 mmHg

Structure (SMILES): CCC(=O)Nc1ccc(-c2nc(SCc3cccc(C)n3)nc(N)c2C#N)cc1 [Example 9, N-{4-[6-amino-5-cyano-2-(6-methylpyridin-2-ylmethylsulfanyl)-pyrimidin-4-yl]phenyl}propionamide]
- EC50 [1]: 9 nM

Structure (SMILES): CCN(CC)C1CCN(C(=O)CCc2cccc(CSc3nc(N)c(C#N)c(-c4ccc(NC(C)=O)cc4)n3)n2)CC1 [Example 68, N-[4-(6-amino-5-cyano-2-{6-[3-(4-diethylaminopiperidin-1-yl)-3-oxopropyl]pyridin-2-yl-methylsulfanyl}pyrimidin-4-yl)phenyl]acetamide hydrochloride salt]
- EC50 [1]: 7.5 nM

Structure (SMILES): CC(=O)Nc1ccc(-c2nc(SCc3cccc(C#CCCC(=O)N4CCN(C)CC4)n3)nc(N)c2C#N)cc1 [Example 52, N-[4-(6-amino-5-cyano-2-{6-[5-(4-methylpiperazin-1-yl)-5-oxopent-1-ynyl]pyridin-2-ylmethylsulfanyl}pyrimidin-4-yl)phenyl]acetamide]
- EC50 [1]: 7 nM

Structure (SMILES): CCC(=O)Nc1ccc(-c2nc(SCc3cccc(CCC(=O)N4CCN(C)CC4)n3)nc(N)c2C#N)cc1 [Example 57, N-[4-(6-amino-5-cyano-2-{6-[3-(4-methylpiperazin-1-yl)-3-oxopropyl]pyridin-2-ylmethylsulfanyl}pyrimidin-4-yl)phenyl]propionamide]
- EC50 [1]: 3.4 nM

Structure (SMILES): CC(=O)Nc1ccc(-c2nc(SCc3cc(C)ccn3)nc(N)c2C#N)cc1 [Example 4, N-{4-[6-amino-5-cyano-2-(4-methylpyridin-2-ylmethylsulfanyl)pyrimidin-4-yl]phenyl}acetamide]
- EC50 [1]: 879 nM

Structure (SMILES): CC(=O)Nc1ccc(-c2nc(SCc3cccc(C(=O)N4CCOCC4)n3)nc(N)c2C#N)cc1 [Example 26, N-(4-{6-amino-5-cyano-2-[6-(morpholin-4-carbonyl)pyridin-2-ylmethyl-sulfanyl]pyrimidin-4-yl}phenyl)acetamide hydrochloride salt]
- EC50 [1]: 30.7 nM

Structure (SMILES): CCCS(=O)(=O)N(C)Cc1cccc(CSc2nc(N)c(C#N)c(-c3ccc(NC(C)=O)cc3)n2)n1 [Example 41, N-{4-[6-amino-5-cyano-2-(6-{[methyl(propan-1-sulfonyl)amino]methyl}-pyridin-2-ylmethylsulfanyl)pyrimidin-4-yl]phenyl}acetamide]
- EC50 [1]: 23 nM
